Here are results for 19 molecules from patent US12458695B2, “Dosing regimens and related compositions and methods” (Apellis Pharmaceuticals, Inc., priority 2017, dated 2025).

A word on the pIC50: it is the IC50 on a negative log10 scale, so that one unit is a factor of ten.

pIC50: −log10 of the molar value.

One data set relates to complement activation. To be noted: relative to compstatin amidated at the C-terminus; published data; cited from earlier work.
Data set [1] in a line: Phase 1 single and multiple ascending dose trial of nebulized CA28 in healthy volunteers. In kind it is in vivo, human. As for the experimental part:
In the single ascending dose part of the trial, 16 subjects were enrolled in four cohorts of four subjects each.
Four subjects were enrolled in the first cohort of the multiple ascending dose part of the trial. These subjects were to receive 14 consecutive days of treatment with a 60 mg/day dose of the drug. […] The trial was paused and subsequently resumed, with subjects receiving 30 mg/day. […] The trial was then terminated.
Both subjects responded within hours to first-line antibiotic treatment, which is indicative of bacterial pathogenesis. In this trial, subjects were vaccinated against Neisseria meningitides and closely monitored for signs of infections. While the bacterial cultures were all negative, it is believed that Haemophilus influenzae or Streptococcus pneumoniae might have been implicated in the episodes of fever that were observed because C3 deficient individuals are known to be at increased risk of infection with Neisseria meningitidis, Haemophilus influenzae and Streptococcus pneumoniae. Vaccines against these three pathogens are available, and it is believed that the risk of infection can be addressed by vaccination, potentially with addition of prophylactic antibiotics (e.g., penicillin V).

Data set [2] in a line: Inhalation studies, single dose and 14 day repeated dose. To be noted: cynomolgus monkey, in vivo, inhaled or intranasal; 14 day repeated dose; read-out: highest inhaled dose tested without drug-related findings. On the procedure: Inhalation studies of single dose or repeated dosing were conducted in dog and cynomolgus monkey. […] These doses were 25 mg/kg/d in a 7 day repeated dose study in the dog, 80 mg/kg in a single dose study in the monkey, and 30 mg/kg/day in a 14 day repeated dose in the monkey.

For data set [3], the system named is alternative pathway-mediated erythrocyte lysis. To be noted: alternative pathway-mediated erythrocyte lysis assay (WO2004/026328); cited from earlier work.

As to “Ac-ICV(5fW)QDWGAHRCT-CONH2 [Ac-V4(5fW)/H9A]”, the Activity over compstatin with complement activation was 31xmore.

In the case of “Ac-ICVWQDWGAHRCdT-COOH [Ac-V4W/H9A/T13dT-OH]”, in the data set with complement activation, the Activity over compstatin is given as 55xmore.

With `CC[C@H](C)[C@H](NC(C)=O)C(=O)N[C@H]1CSSC[C@@H](C(=O)N[C@H](C(N)=O)[C@@H](C)O)NC(=O)[C@H](CCCNC(=N)N)NC(=O)[C@H](Cc2cnc[nH]2)NC(=O)[C@H](C)NC(=O)CNC(=O)[C@H](Cc2c[nH]c3ccccc23)NC(=O)[C@H](CC(=O)O)NC(=O)[C@H](CCC(N)=O)NC(=O)[C@H](Cc2cn(C)c3ccccc23)NC(=O)[C@H](C(C)C)NC1=O` [CA28], the “adverse event possibly related to pharmacology” value is “Another subject developed signs and symptoms consistent with a potential bacterial infection” in data set [1] (30 mg/day inhaled, after 10 days of treatment); “one subject developed signs and symptoms consistent with a potential bacterial infection” in data set [1] (60 mg/day inhaled, following nine days of treatment). Besides, the safety and tolerability result in data set [1] (single inhaled dose 20, 60, 150 or 350 mg) was “well tolerated and no serious adverse events were reported”. Also, the NOAEL at 336 h in data set [2] worked out at 30 mg/kg/day.

Take “Ac-ICV(Bta)QDWGAHRCT-CONH2 [Ac-V4(Bta)/H9A]”: the Activity over compstatin in the data set with complement activation is listed as 64xmore.

In the case of Ac-ICVWQDWGAHRCT-CONH2 [Ac-V4W/H9A], in the data set with complement activation, the Activity over compstatin is recorded as 45xmore.

“Ac-ICV(1-Nal)QDWGAHRCT-COOH [Ac V4(1-Nal)/H9A-OH]”: in the data set with complement activation, the Activity over compstatin is 30xmore.

For “Ac-ICV(2-Nal)QDWGAHRCT-COOH [Ac V4(2-Nal)/H9A-OH]”, in the data set with complement activation, the Activity over compstatin is on record as 38xmore.

For the molecule “Ac-ICV(Bpa)QDWGAHRCT-COOH [Ac-V4(Bpa)/H9A-OH]”, the Activity over compstatin with complement activation is reported as 49xmore.

“Ac-ICV(5-methyl-W)QDWGAHRCT-CONH2 [Ac-V4(5-MeW)/H9A]”: the Activity over compstatin in the data set on complement activation is recorded as 67xmore.

With “Ac-ICVDhtQDWGAHRCT-COOH [Ac-V4Dht/H9A-OH]”, the Activity over compstatin with complement activation was 5xmore.

As to Ac-ICVYQDWGAHRCT-CONH2 [Ac-V4Y/H9A], the Activity over compstatin in the data set on complement activation is recorded as 14xmore.

As for “Ac-ICV(Bpa)QDWGAHRCT-CONH2 [Ac-V4(Bpa)/H9A]”, the Activity over compstatin in the data set with complement activation is 86xmore.

“H-GICV(6fW)QD(6fW)GAHRCTN-COOH (GICVXQDXGAHRCTN; not fully specified; 6-fluoro-Trp at V4 and W7; SITE 1 N-term H; MOD_RES 5 6-fluoro-L-tryptophan; MOD_RES 8 6-fluoro-L-tryptophan; SITE 15 C-term COOH) [+G/V4(6fW)/W7(6fW)H9A+N-OH]”: the Activity over compstatin in the data set with complement activation is 126xmore.

On to Ac-ICVVQDWGHHRCT-CONH2 [Ac-compstatin], for which the Activity over compstatin in the data set on complement activation is on record as 3xmore.

As to “Ac-ICV(2-Igl)QDWGAHRCT-CONH2 [Ac-V42Igl/H9A]”, the Activity over compstatin in the data set on complement activation is 39xmore.

With `CC[C@H](C)[C@H](N)C(=O)N[C@H]1CSSC[C@@H](C(=O)N[C@H](C(N)=O)[C@@H](C)O)NC(=O)[C@H](CCCN=C(N)N)NC(=O)[C@H](Cc2cnc[nH]2)NC(=O)[C@H](Cc2cnc[nH]2)NC(=O)CNC(=O)[C@H](Cc2c[nH]c3ccccc23)NC(=O)[C@H](CC(=O)O)NC(=O)[C@H](CCC(N)=O)NC(=O)[C@H](C(C)C)NC(=O)[C@H](C(C)C)NC1=O` [Compstatin], the pIC50 in data set [3] is 4.92.

On to “Ac-ICV(2-Nal)QDWGAHRCT-CONH2 [Ac-V4(2-Nal)/H9A]”, for which, in the data set on complement activation, the Activity over compstatin is 99xmore.

For “Ac-ICV(2-Igl)QDWGAHRCT-COOH [Ac-V42Igl/H9A-OH]”, the Activity over compstatin in the data set on complement activation is on record as 37xmore.

Consider “Ac-ICV(Bta)QDWGAHRCT-COOH [Ac-V4(Bta)/H9A-OH]”, for which the Activity over compstatin in the data set with complement activation was 65xmore.
